Measurements taken from patent US8802723B2, “Metabolic syndrome-improving agent and medicine, supplement, functional food and food additive containing the same” (ARKRAY, Inc., priority 2005, dated 2014).

System: adiponectin mRNA
Assay: adiponectin mRNA expression in differentiated 3T3-L1 adipocytes (Light Cycler)
Format: cell-based
Details: 3T3-L1, 7 days after differentiation induction, non-treatment control = 100, average ± standard error
Experimental: Differentiation Induction Medium (0.25 μM DEX, 0.5 mM MIX, 10 μg/mL Insulin/10% FBS/DMEM)
55 mL of FBS (fetal bovine serum (manufactured by GIBCO)) was added to 500 mL of DMEM (manufactured by SIGMA) so as to prepare 10% FBS/DMEM. To this 10% FBS/DMEM, 138.75 μL of 1 mM DEX (dexamethasone)/DMSO (manufactured by Nacalai Tesque, Inc.) and 555 μL of 10 mg/mL insulin/PBS (manufactured by SIGMA) were added. Incidentally, the insulin/PBS was obtained by adding 1N HCl to PBS in advance so as to make the solution acidic enough to allow insulin dissolution and then dissolving insulin. […]
Next, culture preadipocytes 3T-L1 were thawed, inoculated in a 100 mm dish and cultured until 3T3-L 1 cells reached about 80% confluence. […] 7 days after the initiation of the differentiation induction, mRNA was extracted using Sepasol(R)—RNA I super (manufactured by Nacalai Tesque, Inc.), and the mRNA expression amounts of 36B4, aP2 and adiponectin, which were indicators of an early period of adipocyte differentiation, were measured using Light Cycler™. Also, the medium 7 days after the differentiation induction was taken in an amount of 1 mL from each well, and the amount of adiponectin in the medium supernatant was measured using a mouse/rat adiponectin ELISA kit (trade name) (manufactured by Otsuka Pharmaceutical Co., Ltd.). […]

For `CC(C)=CCC/C(C)=C/COc1ccc2ccc(=O)oc2c1` [Aurapten, aurapten], the “Adiponectin mRNA expression amount (ratio to 36B4)” value (aurapten 1 μM) was 144.5 ± 26.7 and the “Adiponectin mRNA expression amount (ratio to 36B4)” value (aurapten 5 μM) was 161.4 ± 40.2.
